PubChem BioAssay (NCI)
“And” between values parts separate entries of the source, which are not always exact repeats. Identical values can stand only once.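 Method: 48-hour compound exposure of cells in 96-well plates, five concentrations, linear interpolation of endpoints. GI50 marks 50% less growth. TGI: total growth inhibition.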 *1 amine or outer side, *2 acyl side, *3 side chain or, on linkers, in order; H or OH if unused. Where a SMILES comes first, the peptide text is derived from it. Bridges are numbered along the chain shown (N, C = ends). Roman numbers before positions name the chains, in order. [ ]: non-standard residue; d: D form. Actinocin(9to1) = Cc1c2oc3c(C)ccc(C(=O)[*:1])c3nc-2c(C(=O)[*:2])c(N)c1=O; Hyp = O=C(O)[CH]1C[CH](O)CN1; NMeV = CN[CH](C(=O)O)C(C)C; Sar = CNCC(=O)O

What was measured:
Test in all cases: NCI anticancer screen, dose series, 48 h
[1] = system: UACC-62 melanoma
[2] = system: SF-268 CNS
[3] = system: SK-OV-3 ovarian
[4] = system: MALME-3M melanoma
[5] = system: COLO 205 colon
[6] = system: MOLT-4 leukemia
[7] = system: OVCAR-5 ovarian
[8] = system: OVCAR-4 ovarian
[9] = system: RXF 393 renal
[10] = system: HS 578T breast

Row | SMILES | TGI [1] | TGI [2] [µM] | TGI [3] | TGI [4] [µM] | TGI [5] [µM] | TGI [6] | TGI [7] | TGI [8] [µM] | TGI [9] [µM] | TGI [10] | GI50 [8] [µM] | GI50 [1] [µM] | GI50 [3] [µM] | GI50 [6] [µM]
1 | O=C(CN1CCCCC1)Nc1ccc2c(c1)C1Oc3ccccc3CC1CO2 (stereo unspecified) | 34.1 µM | > 100 | 81.9 µM | 32.2 | 26.2 | > 100 µM | 38.2 µM |  |  |  |  |  |  | 
2 | Cc1c(Cl)cccc1N=NC(=O)NNc1cccc(Cl)c1C | 25.5 µM | 31.8 |  | 30.8 |  | 46.7 µM | 27.1 µM | 25.9 |  |  |  |  |  | 
3 | C=CC(C)C1(CCCOCc2ccccc2)C(=S)N2CCC3(CC24CCCC14)OCCO3 (stereo unspecified) | > 100 µM | > 100 | > 100 µM | > 100 | > 100 | > 100 µM | > 100 µM | > 100 | > 100 |  |  |  |  | 
4 | NCCCNOCCCN | > 100 µM | > 100 | > 100 µM | > 100 | > 100 | > 100 µM | > 100 µM | > 100 | > 100 |  |  |  |  | 
5 | COC(=O)CNC(=O)CCC(C)[C@H]1CCC2C3C(C[C@H](OC(C)=O)[C@@]21C)[C@@]1(C)CCC2(C[C@H]1C[C@H]3OC(C)=O)OOC1(CC[C@]3(C)C4C[C@H](OC(C)=O)[C@@]5(C)C(CC[C@@H]5C(C)CCC(=O)NCC(=O)OC)C4[C@H](OC(C)=O)C[C@@H]3C1)OO2 (stereo partly specified) |  | 16.1 | 13.9 µM | 1.93 |  |  | 9.96 µM | 13.3 |  | 2.37 µM |  |  |  | 
6 | O=C(O)/C(=C\c1ccc(O)cc1)c1cccc2ccccc12 | > 100 µM | > 100 |  | > 100 |  | > 100 µM | > 100 µM | > 100 | > 100 | > 100 µM |  |  |  | 
7 | COC(=O)CCNc1c2ccccc2nc2cccc([N+](=O)[O-])c12 | 0.00428 µM and 0.0364 µM |  | 0.405 µM and 0.18 µM | 0.00226 | 0.0171 | 0.117 µM and 0.0124 µM | 0.108 µM and 0.0278 µM | 0.0251 | 0.00217 | 0.0128 µM and 0.0651 µM | 0.00454 | 0.00136 | 0.0405 | 0.00107
8 | COC1=CC(=O)C=C(OC)C1=O | 11.6 µM | 15.3 | 40.3 µM | 51 | 40.3 | 3.59 µM | 52.2 µM | 16.8 | 20.7 |  |  |  |  | 
9 | COC(=O)C(Cc1ccc(N(C)C)cc1)(NC(=O)c1ccccc1)P(=O)(OC)OC (stereo unspecified) | > 100 µM | > 100 | > 100 µM |  | > 100 | > 100 µM | > 100 µM | > 100 | > 100 |  |  |  |  | 
10 | O=C(C/C(=N/O)C(F)(F)F)c1cccs1 | > 100 µM | > 100 | > 100 µM |  | > 100 | > 100 µM | > 100 µM | > 100 | > 100 | > 100 µM |  |  |  | 
11 | COc1c(Br)cc2ccccc2c1-c1c(OC)c(Br)cc2ccccc12 | > 100 µM | > 100 | > 100 µM |  | > 100 | > 100 µM | > 100 µM | > 100 | > 100 | > 100 µM |  |  |  | 
12 | Cc1cc(Nc2ccc(NS(C)(=O)=O)cc2)c2c(ccc3nccc32)[nH]1 | 30.7 µM | 23 |  | 27.8 | 35.8 | 11.8 µM | 75.1 µM | 30.6 |  | > 100 µM |  |  |  | 
13 | CC(=O)O[C@H]1C(=O)[C@@]2(C)[C@H]([C@H](OC(=O)c3ccccc3)[C@]3(O)C[C@H](OC(=O)[C@H](O)[C@@H](NC(=O)c4ccccc4)c4cccc(N(C)C)c4)C(C)=C1C3(C)C)[C@]1(OC(C)=O)CO[C@@H]1C[C@@H]2O | > 50.2 µM | > 75 | > 28.6 µM | > 67.1 | 0.285 |  | > 15.8 µM | > 43.6 | 1.24 | 0.603 µM |  |  |  | 
14 | COc1ccc2c(c1)NC1(CCN(CCCC(=O)c3ccc(F)cc3)CC1)N=N2 | 41.6 µM | > 100 | > 100 µM | 30.6 | 27.8 | 41.4 µM | 61.1 µM | > 100 | 55.1 |  |  |  |  | 
15 | Cc1cc2c(c(S(=O)(=O)c3ccccc3[N+](=O)[O-])c1)NCCC2 | > 100 µM | > 100 | > 100 µM | > 100 | > 100 |  | > 100 µM | > 100 | > 100 | > 100 µM |  |  |  | 
16 | CN(C)CCOc1ccc(-c2c(Oc3ccccc3)c(=O)oc3ccccc23)cc1 | 27.2 µM | 25.4 |  | 25.8 | 24.7 | 20.5 µM | 29.2 µM | 59 | 17.6 | 35.2 µM |  |  |  | 
17 | CO/N=C(\C([O-])=N\[n+]1cnn(CC(=O)OC(C)(C)C)c1)c1csc(NC(c2ccccc2)(c2ccccc2)c2ccccc2)n1 |  | > 10 | > 10 µM | > 10 | > 10 | > 10 µM | > 10 µM | > 10 | > 10 | > 10 µM |  |  |  | 
18 | O=c1[nH]nc(Nc2ccccc2)c2nnn(C3CCCCC3)c12 |  |  |  | > 100 | > 100 | > 100 µM | > 100 µM | > 100 |  |  |  |  |  | 
19 | CNC(=O)SCC(NC(=O)CCC(N)C(=O)O)C(=O)NCC(=O)O (stereo unspecified) | > 100 µM | > 100 | > 100 µM | > 100 | > 100 | > 100 µM | > 100 µM | > 100 | > 100 |  |  |  |  | 
20 | Nc1ccc2ccc(N3CCNCC3)nc2n1 | > 100 µM | > 100 | > 100 µM | > 100 | > 100 | > 100 µM | > 100 µM | > 100 |  | > 100 µM |  |  |  | 
21 | C=CCOC(OCC=C)/C(Br)=C/C | > 100 µM | 75.2 | > 100 µM |  | 52.9 |  | > 100 µM | 63.7 | > 100 | 72.2 µM |  |  |  | 
22 | Cc1c2oc3c(C)ccc(C(=O)NC4C(=O)NC(C(C)C)C(=O)N5CC(O)CC5C(=O)N(C)CC(=O)N(C)C(C(C)C)C(=O)OC4C)c3nc-2c(C(=O)NC2C(=O)NC(C(C)C)C(=O)N3CC(O)CC3C(=O)N(C)CC(=O)N(C)C(C(C)C)C(=O)OC2C)c(N)c1=O (stereo unspecified) (I: TV[Hyp][Sar][NMeV] / II: TV[Hyp][Sar][NMeV]; ester I:1-I:C, II:1-II:C; linker I:N-II:N via Actinocin(9to1); configuration not given here) |  | > 1 | > 1 µM | > 1 | > 1 | > 1 µM | > 1 µM | > 1 | > 1 | > 1 µM |  |  |  | 
